The test has as its target T1, PKCζ (protein kinase C ζ) (Homo sapiens, UniProt Q05513).
T1 construct: gene PRKCZ
T1 sequence (Q05513 1-592): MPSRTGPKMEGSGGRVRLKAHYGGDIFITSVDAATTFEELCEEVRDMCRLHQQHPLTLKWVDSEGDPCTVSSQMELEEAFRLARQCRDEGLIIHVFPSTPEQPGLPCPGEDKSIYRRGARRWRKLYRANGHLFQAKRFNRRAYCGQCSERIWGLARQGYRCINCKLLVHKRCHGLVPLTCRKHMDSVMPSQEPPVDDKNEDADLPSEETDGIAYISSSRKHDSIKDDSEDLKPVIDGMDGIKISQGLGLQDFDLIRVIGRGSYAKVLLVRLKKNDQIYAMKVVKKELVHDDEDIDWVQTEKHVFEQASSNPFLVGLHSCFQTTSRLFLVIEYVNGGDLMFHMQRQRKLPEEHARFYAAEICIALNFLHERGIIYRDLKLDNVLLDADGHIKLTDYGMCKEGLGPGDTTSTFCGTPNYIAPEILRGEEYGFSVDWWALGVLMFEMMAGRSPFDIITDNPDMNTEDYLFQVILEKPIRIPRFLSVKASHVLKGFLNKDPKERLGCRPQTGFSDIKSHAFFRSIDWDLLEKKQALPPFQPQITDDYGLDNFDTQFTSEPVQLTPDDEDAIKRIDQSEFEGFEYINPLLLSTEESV
The experiment in a line: Z'-LYTE kinase assay (Ser/Thr […] peptide) with purchased PKCζ (Invitrogen Cat. No. […]), […] ATP. The format is biochemical.

As usually defined, the IC50 is the concentration that inhibits the measured activity by half.

`Cc1c(CSC(=N)N)c(C)c(CSC(=N)N)c(C)c1CSC(=N)N` [J-4] showed an IC50 of around 10 µM.

The values are drawn from publication PMC5581453, “Combination therapy of PKCζ and COX-2 inhibitors synergistically suppress melanoma metastasis” (Journal of Experimental & Clinical Cancer Research : CR, 2017).
